According to paper PMC6013247, “Preclinical characterization of INCB053914, a novel pan-PIM kinase inhibitor, alone and in combination with anticancer agents, in models of hematologic malignancies” (PLoS ONE, 2018):

Key:
Test in all cases: Cell proliferation assay ([3H]-thymidine)
Format in all cases: cell-based
SKM-1 = conditions: Homo sapiens; SKM-1 (AML); read-out: Mean (± SD) GI50
Experimental: (§1) The antiproliferative effects of INCB053914 on hematologic tumor cells were investigated using assays described in the Supporting Information (S2 File).
(§2) Cell proliferation assays. […] After 3 to 4 days, [^3H]-thymidine (1 μCi/well) (PerkinElmer) in PBS (10 μl) was added to the cell culture for an additional 12 hours. The incorporated radioactivity was separated by filtration with water through GF/B filters (Packard Bioscience, Meriden, Connecticut) and measured by liquid scintillation counting with a TopCount (Packard Bioscience).

KG-1a = KG-1a (AML)
Experimental: as §1, §2

OCI-LY-10 = OCI-LY-10 (DLBCL)
Experimental: as §1, §2

L363 = L363 (MM)
Experimental: as §1, §2

RPMI8226 = RPMI8226 (MM)
Experimental: as §1, §2

OCI-LY-19 = OCI-LY-19 (DLBCL)
Experimental: as §1, §2

THP-1 = THP-1 (AML)
Experimental: as §1, §2

Jeko-1 = Jeko-1 (MCL)
Experimental: as §1, §2

KMS-11 = KMS-11 (MM)
Experimental: as §1, §2

Kasumi-3 = Kasumi-3 (AML)
Experimental: as §1, §2

Mino = conditions: Homo sapiens; Mino (MCL); read-out: Mean (± SD) GI50
Experimental: as §1, §2

HL-60 = conditions: Homo sapiens; HL-60 (AML); read-out: Mean (± SD) GI50
Experimental: as §1, §2

HBL-1 = conditions: HBL1; HBL-1 (DLBCL); read-out: Mean (± SD) GI50
Experimental: as §1, §2

MM1.S = MM1.S (MM)
Experimental: as §1, §2

INA-6 = INA-6 (MM)
Experimental: as §1, §2

F36P = F36P (AML)
Experimental: as §1, §2

MV-411 = MV-411 (AML)
Experimental: as §1, §2

NOMO1 = NOMO1 (AML)
Experimental: as §1, §2

KMS-12-BM = conditions: Homo sapiens; KMS-12-BM (MM); read-out: Mean (± SD) GI50
Experimental: as §1, §2

PL-21 = PL-21 (AML); read-out: Mean (± SD) GI50
Experimental: as §1, §2

RPMI-6666 = conditions: Homo sapiens; RPMI-6666 (HL); read-out: Mean (± SD) GI50
Experimental: as §1, §2

OPM-2 = OPM-2 (MM)
Experimental: as §1, §2

Pfeiffer = Pfeiffer (DLBCL)
Experimental: as §1, §2

Kasumi-1 = Kasumi-1 (AML)
Experimental: as §1, §2

KMS-12-PE = KMS-12-PE (MM)
Experimental: as §1, §2

JVM2 = JVM2 (MCL)
Experimental: as §1, §2

JM-1 = JM-1 (T-ALL)
Experimental: as §1, §2

GDM-1 = conditions: Homo sapiens; GDM-1 (AML); read-out: Mean (± SD) GI50
Experimental: as §1, §2

Jurkat = Jurkat (T-ALL)
Experimental: as §1, §2

SUDHL-1 = conditions: Homo sapiens, SU-DHL-1; SUDHL-1 (DLBCL); read-out: Mean (± SD) GI50
Experimental: as §1, §2

[1] = Homo sapiens, read-out: Mean (± SD) GI50

For `C[C@H]1CN(c2c(NC(=O)c3ccc(F)c(-c4c(F)cccc4F)n3)cnc3c2CC[C@H]3O)C[C@@H](N)[C@@H]1O.O=P(O)(O)O` [INCB053914, N-((R)-4-((3R,4R,5S)-3-amino-4-hydroxy-5-methylpiperidin-1-yl)-7-hydroxy-6,7-dihydro-5H-cyclopenta[b]pyridin-3-yl)-6-(2,6-difluorophenyl)-5-fluoropicolinamide phosphate], which GI50 (SKM-1) is on record?
Its GI50 is > 3000 nM.

What about the GI50 (KG-1a; [1]) of the same compound?
The GI50 was 14.3 ± 4.9 nM.

And the “Mean (SD) maximum inhibition” value (KG-1a)?
Its value is 94.5 ± 1.5%.

And the GI50 (OCI-LY-10; Homo sapiens, OCI-Ly10, read-out: Mean (± SD) GI50)?
Its GI50 is 41.7 ± 29.4 nM.

And the “Mean (SD) maximum inhibition” value (OCI-LY-10)?
Its value is 96.3 ± 5.5%.

And the GI50 (L363; Homo sapiens, L-363, read-out: Mean (± SD) GI50)?
The GI50 was 115 ± 89.4 nM.

What about the “Mean (SD) maximum inhibition” value (L363) of the same compound?
Its value is 90.3 ± 8.1%.

What about the GI50 (RPMI8226; Homo sapiens, RPMI-8226, read-out: Mean (± SD) GI50) of the same compound?
Its GI50 is 230 ± 132 nM.

What about the “Mean (SD) maximum inhibition” value (RPMI8226) of the same compound?
Its value is 96.8 ± 2.2%.

And the GI50 (OCI-LY-19; Homo sapiens, OCI-LY19, read-out: Mean (± SD) GI50)?
Its GI50 is 110 ± 53.6 nM.

What about the “Mean (SD) maximum inhibition” value (OCI-LY-19) of the same compound?
The value was 69.7 ± 5.1%.

What about the GI50 (THP-1; [1]) of the same compound?
The GI50 was 2050 nM.

And the “Mean (SD) maximum inhibition” value (THP-1)?
The value was 76.3 ± 22.3%.

What about the GI50 (Jeko-1; [1]) of the same compound?
Its GI50 is 117 ± 45.5 nM.

And the “Mean (SD) maximum inhibition” value (Jeko-1)?
Its value is 91.3 ± 2.9%.

And the GI50 (KMS-11; [1])?
Its GI50 is 81.8 ± 8.1 nM.

What about the “Mean (SD) maximum inhibition” value (KMS-11) of the same compound?
The value was 93.0 ± 2.5%.

What about the “Mean (SD) maximum inhibition” value (Kasumi-3) of the same compound?
The value was 84.3 ± 7.2%.

What about the GI50 (Kasumi-3; read-out: Mean (± SD) GI50) of the same compound?
The GI50 was 4.9 nM.

What about the GI50 (Mino) of the same compound?
Its GI50 is > 3000 nM.

What about the GI50 (HL-60) of the same compound?
Its GI50 is > 3000 nM.

What about the GI50 (HBL-1) of the same compound?
The GI50 was > 3000 nM.

And the GI50 (MM1.S; [1])?
Its GI50 is 55.4 ± 38.1 nM.

And the “Mean (SD) maximum inhibition” value (MM1.S)?
Its value is 88.3 ± 3.1%.

And the “Mean (SD) maximum inhibition” value (INA-6)?
Its value is 99.0 ± 0.2%.

And the GI50 (INA-6; read-out: Mean (± SD) GI50)?
The GI50 was 24.8 ± 4.6 nM.

What about the “Mean (SD) maximum inhibition” value (F36P) of the same compound?
Its value is 94.7 ± 2.5%.

What about the GI50 (F36P; read-out: Mean (± SD) GI50) of the same compound?
Its GI50 is 76.1 ± 36.7 nM.

What about the GI50 (MV-411; Homo sapiens, MV4-11, read-out: Mean (± SD) GI50) of the same compound?
Its GI50 is 35.2 ± 41.7 nM.

What about the “Mean (SD) maximum inhibition” value (MV-411) of the same compound?
Its value is 94.3 ± 3.9%.

What about the GI50 (NOMO1; Homo sapiens, NOMO-1, read-out: Mean (± SD) GI50) of the same compound?
Its GI50 is 35.9 ± 9.3 nM.

What about the “Mean (SD) maximum inhibition” value (NOMO1) of the same compound?
Its value is 84.6 ± 4.0%.

What about the GI50 (KMS-12-BM) of the same compound?
Its GI50 is 34.2 ± 19.9 nM.

And the GI50 (PL-21)?
Its GI50 is > 3000 nM.

And the GI50 (RPMI-6666)?
The GI50 was > 3000 nM.

And the GI50 (OPM-2; [1])?
The GI50 was 123 ± 4.9 nM.

What about the “Mean (SD) maximum inhibition” value (OPM-2) of the same compound?
The value was 87.5 ± 8.0%.

And the GI50 (Pfeiffer; [1])?
The GI50 was 19.5 nM.

What about the “Mean (SD) maximum inhibition” value (Pfeiffer) of the same compound?
Its value is 90.5 ± 6.7%.

What about the GI50 (Kasumi-1; [1]) of the same compound?
The GI50 was 206 ± 76.3 nM.

What about the “Mean (SD) maximum inhibition” value (Kasumi-1) of the same compound?
The value was 76.7 ± 4.6%.

And the GI50 (KMS-12-PE; [1])?
Its GI50 is 89.7 ± 50.9 nM.

And the “Mean (SD) maximum inhibition” value (KMS-12-PE)?
Its value is 97.0 ± 4.7%.

What about the GI50 (JVM2; Homo sapiens, JVM-2, read-out: Mean (± SD) GI50) of the same compound?
Its GI50 is 290 ± 291 nM.

What about the “Mean (SD) maximum inhibition” value (JVM2) of the same compound?
Its value is 63.0 ± 8.7%.

What about the GI50 (JM-1; Homo sapiens, JM1, read-out: Mean (± SD) GI50) of the same compound?
The GI50 was 19.5 ± 15.1 nM.

And the “Mean (SD) maximum inhibition” value (JM-1)?
The value was 94.3 ± 4.9%.

And the GI50 (GDM-1)?
The GI50 was > 3000 nM.

And the GI50 (Jurkat; [1])?
The GI50 was 931 ± 800 nM.

What about the “Mean (SD) maximum inhibition” value (Jurkat) of the same compound?
The value was 66.0 ± 7.0%.

What about the GI50 (SUDHL-1) of the same compound?
The GI50 was > 3000 nM.
